ChEMBL document CHEMBL3097987, “Pyrrolizines: Promising scaffolds for anticancer drugs” (Bioorg Med Chem, 2014)
Values belong to the compound of their own block, whether it stands above or below them.

Legend:
B16 = experiment: Cytotoxicity against mouse B16 cells assessed as tumor growth inhibition relative to control; type: functional
[1] = Cytotoxicity against mouse LLC cells assessed as tumor growth inhibition relative to control; type: functional, Lewis lung carcinoma
[2] = Cytotoxicity against mouse mammary carcinoma 755 cells assessed as tumor growth inhibition relative to control; type: functional
[3] = biological target: Peptidyl-prolyl cis-trans isomerase NIMA-interacting 1 (Homo sapiens, UniProt Q13526); experiment: Inhibition of Pin-1 (unknown origin) using Suc-Ala-Glu-Pro-Phe-pNA as substrate preincubated for 300 seconds followed by substrate addition by UV/Vis spectrophotometric analysis
HT-1080 = experiment: Ratio of cisplatin IC50 to compound IC50 for human HT1080 cells; type: functional
[4] = Antitumor activity against human Bel7402 cells by MTT assay; type: functional, cell-based; conditions: Bel-7402
[5] = Antitumor activity against human HT1080 cells by MTT assay; type: functional, cell-based; conditions: HT-1080
Bel-7402 = experiment: Ratio of cisplatin IC50 to compound IC50 for human Bel7402 cells; type: functional
HT-29 = experiment: Cytotoxicity against human HT-29 cells relative to licofelone; type: functional
MCF7 [6] = experiment: Cytotoxicity against human MCF7 cells relative to 5-flurouracil; type: functional
MCF7 [7] = experiment: Cytotoxicity against human MCF7 cells relative to licofelone; type: functional
MDA-MB-231 [8] = experiment: Cytotoxicity against human MDA-MB-231 cells relative to 5-flurouracil; type: functional
MDA-MB-231 [9] = experiment: Cytotoxicity against human MDA-MB-231 cells relative to licofelone; type: functional
Tubulin = experiment: Inhibition of tubulin (unknown origin) polymerization; type: protein-complex assay, Homo sapiens
Jensen sarcoma = experiment: Growth inhibition of rat Jensen sarcoma relative to control; type: functional
[10] = Growth inhibition of mouse mammary carcinoma 755 cells relative to control; type: functional
Aromatase = biological target: T1, Aromatase (Homo sapiens, UniProt P11511); experiment: Inhibition of aromatase (unknown origin)
T1 sequence (P11511 whole entry): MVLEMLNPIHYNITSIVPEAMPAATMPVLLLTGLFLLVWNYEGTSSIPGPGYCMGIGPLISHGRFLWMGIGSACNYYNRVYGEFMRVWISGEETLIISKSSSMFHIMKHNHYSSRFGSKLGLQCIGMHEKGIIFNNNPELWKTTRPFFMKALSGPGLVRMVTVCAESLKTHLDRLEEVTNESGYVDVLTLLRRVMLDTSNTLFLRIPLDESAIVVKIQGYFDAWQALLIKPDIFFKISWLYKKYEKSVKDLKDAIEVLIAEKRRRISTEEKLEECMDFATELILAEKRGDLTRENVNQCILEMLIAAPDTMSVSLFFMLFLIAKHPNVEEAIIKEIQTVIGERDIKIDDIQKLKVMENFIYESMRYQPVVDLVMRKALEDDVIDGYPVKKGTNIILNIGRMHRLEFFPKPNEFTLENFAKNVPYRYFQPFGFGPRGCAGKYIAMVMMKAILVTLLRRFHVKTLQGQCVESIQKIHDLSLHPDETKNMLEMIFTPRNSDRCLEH

Chain of Peptidyl-prolyl cis-trans isomerase NIMA-interacting 1 (Q13526 whole entry): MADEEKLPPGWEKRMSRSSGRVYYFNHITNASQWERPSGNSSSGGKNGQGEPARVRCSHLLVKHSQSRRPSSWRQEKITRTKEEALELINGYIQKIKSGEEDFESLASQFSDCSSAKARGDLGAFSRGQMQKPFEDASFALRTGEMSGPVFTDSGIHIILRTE

Compound: CCOC(=O)c1c2n(c3c(SCc4ccccc4)ncnc13)CCC2
TGI (B16): 40% | TGI [1]: 43%

Compound: CCOC(=O)Sc1ncnc2c(C(=O)OCC)c3n(c12)CCC3
TGI (B16): 40% | TGI [2]: 34%

Ki [3]: 32 µM
Compound: O=C(NCc1ccc2c(c1)OCO2)C1C(COP(=O)(O)O)C2CCCN2C1c1ccc2ccccc2c1 (racemic)

Ki [3]: 9 µM
Compound: CO[C@@H]1C[C@@H]2[C@@H](COP(=O)(O)O)[C@@H](C(=O)NCc3ccccc3)[C@@H](c3ccc4ccccc4c3)N2C1

Compound: CSc1sc2c(c1-c1ccc([N+](=O)[O-])cc1)-n1cccc1/C2=N\OCOCCN1CCN(C)CC1
Ratio IC50 (HT-1080): 3.3 | IC50 [4]: 18.2 µM | IC50 [5]: 8.2 µM | Ratio IC50 (Bel-7402): 2.5

Ki [3]: 15 µM
Compound: O=C(NCc1ccccc1)C1C(COP(=O)(O)O)C2CCCN2C1c1ccc2ccccc2c1 (racemic)

Compound: CCOC(=O)c1c2n(c3c(SC)ncnc13)CCC2
TGI (B16): 40%

Compound: CC1(C)Cc2c(-c3ccccc3)c(-c3ccc(Cl)cc3)c(C(=O)Cn3cncn3)n2C1
fold change (FC) (HT-29): 2 | fold change (FC) (MCF7 [6]): 2 | fold change (FC) (MCF7 [7]): 2 | fold change (FC) (MDA-MB-231 [8]): 2 | fold change (FC) (MDA-MB-231 [9]): 2

Ki [3]: 16 µM
Compound: O=C(NCc1ccccc1)C1C(COP(=O)(O)O)C2CCCN2C1c1c(F)c(F)c(F)c(F)c1F (racemic)

Compound: COc1cc([C@@H]2c3cc4c(cc3C[C@H]3COC(=O)[C@@H]32)OCO4)cc(OC)c1OC [DESOXYPODOPHYLLOTOXIN]
IC50 (Tubulin): 2.4 µM

Compound: CN(C)/C=N/C(=O)c1c2n(c3c(-c4ccccc4)ncnc13)CCC2
growth inhibition (GI) (Jensen sarcoma): 78% | growth inhibition (GI) [10]: 78%

IC50 (Tubulin): 2.9 µM
Compound: COc1ccc(-c2csc3c2-n2cccc2C3=O)cc1O

IC50 (Aromatase): 0.65 µM
Compound: O=C1/C(=C\c2ccncc2)C(c2ccccc2)n2cccc21 (configuration not stated)

Compound: NC(=O)c1c2n(c3c(-c4ccccc4)ncnc13)CCC2
growth inhibition (GI) (Jensen sarcoma): 73% | growth inhibition (GI) [10]: 73%

Ki [3]: 44 µM
Compound: O=C(NCc1ccccc1)C1C(COP(=O)(O)O)C2CCCN2C1c1ccccc1 (racemic)

IC50 (Aromatase): 3 µM
Compound: O=C1/C(=C\c2cccnc2)C(c2ccccc2)n2cccc21 (configuration not stated)
